Reference: patent publication US20050282755A1, “Compositions having antimicrobial activity and uses thereof” (priority 2004, published 2005)
≈ marks a conversion by molar mass, not a printed value. Non-standard residues stand in square brackets, D forms with d. Residues, ends and D or L forms follow the SMILES beside them. *: point of attachment. 1Nal = N[C@@H](Cc1cccc2ccccc12)C(=O)O; Stearoyl = CCCCCCCCCCCCCCCCCC(=O)*; Lauroyl = CCCCCCCCCCCC(=O)*

What was measured:
Format in all cases: cell-based
[1] = test system: Staphylococcus aureus ATCC 29213; assay: MIC, NCCLS M7-A6 broth microdilution, cation-adjusted Mueller Hinton broth (Table 9, no superscript); settings: ATCC 29213
Experimental: (§1) Cation-adjusted Mueller Hinton broth was used in the broth microdilution method. In brief, a log-phase bacterial suspension was used to inoculate wells of a 96-well plate so that the final inoculum for each well contained 5×10^5 to 1×10^6 CFU/milliliter. […] Plates were incubated overnight at 37° C. The lowest concentration of peptide that contained no visible growth as evidenced by a lack of turbidity when compared to the control (no peptide) was determined as the MIC. Unless otherwise noted, MIC values listed in Table 9 utilized this method of MIC determination.

[2] = test system: Pseudomonas aeruginosa ATCC 27853; assay: MIC, NCCLS M7-A6 broth microdilution (Table 9, no superscript); settings: ATCC 27853
Experimental: as §1

[3] = test system: Salmonella dublin (Lane); assay: as above
Experimental: as §1

[4] = test system: Escherichia coli ATCC 25922; assay: as above; settings: ATCC 25922
Experimental: as §1

[5] = test system: Staphylococcus epidermidis ATCC 12228; assay: as above; settings: ATCC 12228
Experimental: as §1

Row | Structure (SMILES) | MIC S. aureus [1] [µg/mL] | MIC P. aeruginosa [2] [µg/mL] | MIC S. dublin [3] [µg/mL] | MIC E. coli [4] [µg/mL] | MIC S. epidermidis [5] [µg/mL]
1 | CCCCCCCCCCCC(=O)N[C@H](C(=O)N[C@@H](CCCNC(=N)N)C(=O)N[C@H](C(=O)N[C@@H](CO)C(=O)N[C@@H](CCCNC(=N)N)C(=O)N[C@H](C(=O)NCC(=O)N[C@@H](CCCNC(=N)N)C(=O)N[C@@H](CO)C(=O)N[C@@H](CCCNC(=N)N)C(=O)N[C@@H](Cc1c[nH]c2ccccc12)C(=O)N[C@@H](CCCNC(=N)N)C(=O)N[C@@H](CC(=O)O)C(=O)N[C@@H](Cc1c[nH]c2ccccc12)C(=O)N[C@@H](CO)C(=O)N[C@@H](CCCNC(=N)N)C(=O)N[C@@H](CC(N)=O)C(=O)N[C@@H](Cc1ccccc1)C(=O)N[C@@H](CCSC)C(=O)N[C@@H](CCCNC(=N)N)C(=O)N[C@@H](CC(C)C)C(=O)N[C@@H](CC(C)C)C(N)=O)[C@@H](C)O)C(C)C)[C@@H](C)O [Peptide 68] (Lauroyl-TRVSRTGRSRWRDWSRNFMRLL-NH2) | 32 (≈ 10.6 µM) | >64 | 16 (≈ 5.3 µM) | 64 (≈ 21.2 µM) | 8 (≈ 2.65 µM)
2 | CCCCCCCCCCCCCCCCCC(=O)N[C@@H](C(=O)N[C@H](CCCNC(=N)N)C(=O)N[C@@H](C(=O)N[C@H](CO)C(=O)N[C@H](CCCNC(=N)N)C(=O)N[C@@H](C(=O)NCC(=O)N[C@H](CCCNC(=N)N)C(=O)N[C@H](CO)C(=O)N[C@H](CCCNC(=N)N)C(=O)N[C@H](Cc1c[nH]c2ccccc12)C(=O)N[C@H](CCCNC(=N)N)C(=O)N[C@H](CC(=O)O)C(=O)N[C@H](Cc1c[nH]c2ccccc12)C(=O)N[C@H](CO)C(=O)N[C@H](CCCNC(=N)N)C(=O)N[C@H](CC(N)=O)C(=O)N[C@H](Cc1ccccc1)C(=O)N[C@H](CCSC)C(=O)N[C@H](CCCNC(=N)N)C(=O)N[C@H](C)C(=O)N[C@H](C)C(=O)N[C@@H](CCCCN)C(N)=O)[C@H](C)O)C(C)C)[C@H](C)O [Peptide 81, Stearyl-trvsrtgrsrwrdwsrnfmraaK-NH2] (Stearoyl-[dT][dR][dV][dS][dR][dT]G[dR][dS][dR][dW][dR][dD][dW][dS][dR][dN][dF][dM][dR][dA][dA]K-NH2) | 64 (≈ 20.3 µM) | >64 | 32 (≈ 10.2 µM) | 64 (≈ 20.3 µM) | 64 (≈ 20.3 µM)
3 | CSCC[C@@H](NC(=O)[C@@H](Cc1ccccc1)NC(=O)[C@@H](CC(N)=O)NC(=O)[C@@H](CCCNC(=N)N)NC(=O)[C@@H](CO)NC(=O)[C@@H](Cc1c[nH]c2ccccc12)NC(=O)[C@@H](CC(=O)O)NC(=O)[C@@H](CCCNC(=N)N)NC(=O)[C@@H](Cc1c[nH]c2ccccc12)NC(=O)[C@@H](CCCNC(=N)N)NC(=O)[C@@H](CO)NC(=O)[C@@H](CCCNC(=N)N)NC(=O)CNC(=O)[C@H](NC(=O)[C@@H](CCCNC(=N)N)NC(=O)[C@@H](CO)NC(=O)[C@H](NC(=O)[C@@H](CCCNC(=N)N)NC(=O)[C@H](NC(C)=O)[C@H](C)O)C(C)C)[C@H](C)O)C(=O)N[C@H](CCCNC(=N)N)C(=O)N[C@H](C)C(=O)N[C@H](C)C(=O)N[C@@H](CCCCNC(C)=O)C(N)=O [Peptide 84, Ac-trvsrtgrsrwrdwsrnfmraaK(Ac)-NH2] (Ac-[dT][dR][dV][dS][dR][dT]G[dR][dS][dR][dW][dR][dD][dW][dS][dR][dN][dF][dM][dR][dA][dA]K(Ac)-NH2) | – | >64 | – | >64 | 32 (≈ 10.8 µM)
4 | CCCCCCCCCCCCCCCCCC(=O)N[C@@H](C(=O)N[C@H](CCCNC(=N)N)C(=O)N[C@@H](C(=O)N[C@H](CO)C(=O)N[C@H](CCCNC(=N)N)C(=O)N[C@@H](C(=O)NCC(=O)N[C@H](CCCNC(=N)N)C(=O)N[C@H](CO)C(=O)N[C@H](CCCNC(=N)N)C(=O)N[C@H](Cc1c[nH]c2ccccc12)C(=O)N[C@H](CCCNC(=N)N)C(=O)N[C@H](CC(=O)O)C(=O)N[C@H](Cc1c[nH]c2ccccc12)C(=O)N[C@H](CO)C(=O)N[C@H](CCCNC(=N)N)C(=O)N[C@H](CC(N)=O)C(=O)N[C@H](Cc1ccccc1)C(=O)N[C@H](CCSC)C(=O)N[C@H](CCCNC(=N)N)C(=O)N[C@H](C)C(=O)N[C@H](C)C(=O)N[C@@H](CCCCNC(C)=O)C(N)=O)[C@H](C)O)C(C)C)[C@H](C)O [Peptide 86, Stearyl-trvsrtgrsrwrdwsrnfmraaK(Ac)-NH2] (Stearoyl-[dT][dR][dV][dS][dR][dT]G[dR][dS][dR][dW][dR][dD][dW][dS][dR][dN][dF][dM][dR][dA][dA]K(Ac)-NH2) | – | >64 | – | >64 | 32 (≈ 10 µM)
5 | CSCC[C@H](NC(=O)[C@H](Cc1ccccc1)NC(=O)[C@H](CC(N)=O)NC(=O)[C@H](CCCNC(=N)N)NC(=O)[C@H](C)NC(=O)[C@H](Cc1c[nH]c2ccccc12)NC(=O)[C@H](CC(=O)O)NC(=O)[C@H](CCCNC(=N)N)NC(=O)[C@H](Cc1c[nH]c2ccccc12)NC(=O)[C@H](CCCNC(=N)N)NC(=O)[C@H](CO)NC(=O)[C@H](CCCNC(=N)N)NC(C)=O)C(=O)N[C@@H](CCCNC(=N)N)C(N)=O [Peptide 94, Ac-RSRWRDWARNFMR-NH2] (Ac-RSRWRDWARNFMR-NH2) | >64 | >64 | >64 | >64 | 16 (≈ 8.52 µM)
6 | CCCCCCCCCCCC(=O)N[C@@H](CCCNC(=N)N)C(=O)N[C@@H](CO)C(=O)N[C@@H](CCCNC(=N)N)C(=O)N[C@@H](Cc1c[nH]c2ccccc12)C(=O)N[C@@H](CCCNC(=N)N)C(=O)N[C@@H](CC(=O)O)C(=O)N[C@H](C(=O)N[C@@H](Cc1cccc2ccccc12)C(=O)N[C@@H](CCCNC(=N)N)C(=O)N[C@@H](CC(N)=O)C(=O)N[C@@H](Cc1ccccc1)C(=O)N[C@@H](CCSC)C(=O)N[C@@H](CCCNC(=N)N)C(N)=O)C(C)C [Peptide 151, Lauryl-RSRWRDVZRNFMR-NH2 Z = 1-naphthylalanine] (Lauroyl-RSRWRDV[1Nal]RNFMR-NH2) | 32 (≈ 15.6 µM) | >64 | 8 (≈ 3.89 µM) | 64 (≈ 31.1 µM) | 4 (≈ 1.94 µM)
7 | CCCCCCCCCCCC(=O)N[C@@H](CCCNC(=N)N)C(=O)N[C@@H](CO)C(=O)N[C@@H](CCCNC(=N)N)C(=O)N[C@@H](Cc1cccc2ccccc12)C(=O)N[C@@H](CCCNC(=N)N)C(=O)N[C@@H](CC(=O)O)C(=O)N[C@@H](Cc1cccc2ccccc12)C(=O)N[C@@H](C)C(=O)N[C@@H](CCCNC(=N)N)C(=O)N[C@@H](CC(N)=O)C(=O)N[C@@H](Cc1ccccc1)C(=O)N[C@@H](CCSC)C(=O)N[C@@H](CCCNC(=N)N)C(N)=O [Peptide 153, Lauryl-RSRZRDZARNFMR-NH2 Z = 1-naphthylalanine] (Lauroyl-RSR[1Nal]RD[1Nal]ARNFMR-NH2) | 8 (≈ 3.92 µM) | 64 (≈ 31.4 µM) | 64 (≈ 31.4 µM) | 32 (≈ 15.7 µM) | 8 (≈ 3.92 µM)
8 | CCCCCCCCCCCC(=O)N[C@@H](CCCNC(=N)N)C(=O)N[C@@H](CO)C(=O)N[C@@H](CCCNC(=N)N)C(=O)N[C@@H](Cc1cccc2ccccc12)C(=O)N[C@@H](CCCNC(=N)N)C(=O)N[C@@H](CC(=O)O)C(=O)N[C@H](C(=O)N[C@@H](C)C(=O)N[C@@H](CCCNC(=N)N)C(=O)N[C@@H](CC(N)=O)C(=O)N[C@@H](Cc1cccc2ccccc12)C(=O)N[C@@H](CCSC)C(=O)N[C@@H](CCCNC(=N)N)C(N)=O)C(C)C [Peptide 154, Lauryl-RSRZRDVARNZMR-NH2 Z = 1-naphthylalanine] (Lauroyl-RSR[1Nal]RDVARN[1Nal]MR-NH2) | 4 (≈ 2.01 µM) | >64 | 8 (≈ 4.02 µM) | 64 (≈ 32.1 µM) | 8 (≈ 4.02 µM)
9 | CCCCCCCCCCCC(=O)N[C@@H](CCCNC(=N)N)C(=O)N[C@@H](CO)C(=O)N[C@@H](CCCNC(=N)N)C(=O)N[C@@H](Cc1cccc2ccccc12)C(=O)N[C@@H](CCCNC(=N)N)C(=O)N[C@@H](CC(=O)O)C(=O)N[C@@H](Cc1cccc2ccccc12)C(=O)N[C@@H](C)C(=O)N[C@@H](CCCNC(=N)N)C(=O)N[C@@H](CC(N)=O)C(=O)N[C@@H](Cc1cccc2ccccc12)C(=O)N[C@@H](CCSC)C(=O)N[C@@H](CCCNC(=N)N)C(N)=O [Peptide 155, Lauryl-RSRZRDZARNZMR-NH2 Z = 1-naphthylalanine] (Lauroyl-RSR[1Nal]RD[1Nal]ARN[1Nal]MR-NH2) | 64 (≈ 30.6 µM) | >64 | 16 (≈ 7.65 µM) | >64 | 16 (≈ 7.65 µM)
10 | CCCCCCCCCCCC(=O)N[C@H](CCCNC(=N)N)C(=O)N[C@H](CC(C)C)C(=O)N[C@H](CCCNC(=N)N)C(=O)N[C@H](Cc1c[nH]c2ccccc12)C(=O)N[C@H](CCCNC(=N)N)C(=O)N[C@H](CC(C)C)C(=O)N[C@@H](C(=O)N[C@H](CC(C)C)C(=O)N[C@H](CCCNC(=N)N)C(=O)N[C@H](CC(C)C)C(=O)N[C@H](Cc1ccccc1)C(=O)N[C@H](CC(C)C)C(=O)N[C@H](CCCNC(=N)N)C(N)=O)C(C)C [Peptide 218, Lauryl-rlrwrlvlrlflr-NH2] (Lauroyl-[dR][dL][dR][dW][dR][dL][dV][dL][dR][dL][dF][dL][dR]-NH2) | >64 | – | >64 | – | –
